Test: Evaluation of Antiviral Activity of Compounds Against Human Coronavirus (HCov) 229E and OC43 in the Cytopathic Effect (CPE) Assays: Compounds were assayed using standard methods against multiple coronaviral strains, including HCoV 229E and OC43 strains.

Row | SMILES | EC50 [nM] | IC50 [nM]
1 | N#C[C@H](C[C@@H]1CCCNC1=O)NC(=O)[C@H]1CC2(CN1C(=O)c1cc3cccc(Cl)c3[nH]1)CC(F)(F)C2 (single isomer, unassigned) | < 2000 | < 2000
2 | CCCOc1cccc2[nH]c(C(=O)N[C@@H](CC(C)C)C(=O)N[C@H](C#N)C[C@@H]3CCNC3=O)cc12 | < 2000 | –
3 | COc1cccc2[nH]c(C(=O)N3CC4(CCC4)C[C@@H]3C(=O)N[C@H](C#N)C[C@@H]3CCCNC3=O)cc12 (single isomer, unassigned; isomer 2) | < 2000 | –
4 | COc1cccc2[nH]c(C(=O)N[C@@H](CC3CC3)C(=O)N[C@@]3(C#N)C[C@@H]4CC[C@@H]3[C@H]3C(=O)NC(=O)[C@@H]43)cc12 (single isomer, unassigned; isomer 1) | – | > 30000
5 | N#C[C@H](C[C@@H]1CCCNC1=O)NC(=O)[C@@H]1CC2(CCCCC2)CN1C(=O)c1cc2ccc(Cl)cc2[nH]1 (single isomer, unassigned) | < 2000 | < 2000

— ChEMBL document CHEMBL5729078, “Inhibitors of cysteine proteases and methods of use thereof” (2022)
